Laboratory results reported in US12540131B2 (Merck Sharp & Dohme LLC, priority 2019, dated 2026).

The compounds below were run against GST tagged truncated human mutant G2019S LRRK2 (Homo sapiens (Human), UniProt Q5S007, G2019S) (assay: LRRK2 Km ATP LanthaScreen Assay). Conditions: G2019S LRRK2, 134 μM ATP (Km ATP), mean values.
Type: biochemical
Summary of the method: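 Enzyme (GST-tagged, truncated) was preincubated with compound for 15 min at RT in 50 mM Tris pH 8.5, 10 mM MgCl2, 0.01% Brij-35, 1 mM EGTA, 2 mM DTT and 0.05 mM orthovanadate. Fluorescein-LRRKtide and 134 μM ATP (Km) were then added for 90 min. EDTA and Tb-anti-pERM antibody stopped the reaction; the TR-FRET 520/495 ratio gave 4-parameter IC50s, reported as mean pIC50.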

Chain of GST tagged truncated human mutant G2019S LRRK2 (Q5S007 970-2527 G2019S): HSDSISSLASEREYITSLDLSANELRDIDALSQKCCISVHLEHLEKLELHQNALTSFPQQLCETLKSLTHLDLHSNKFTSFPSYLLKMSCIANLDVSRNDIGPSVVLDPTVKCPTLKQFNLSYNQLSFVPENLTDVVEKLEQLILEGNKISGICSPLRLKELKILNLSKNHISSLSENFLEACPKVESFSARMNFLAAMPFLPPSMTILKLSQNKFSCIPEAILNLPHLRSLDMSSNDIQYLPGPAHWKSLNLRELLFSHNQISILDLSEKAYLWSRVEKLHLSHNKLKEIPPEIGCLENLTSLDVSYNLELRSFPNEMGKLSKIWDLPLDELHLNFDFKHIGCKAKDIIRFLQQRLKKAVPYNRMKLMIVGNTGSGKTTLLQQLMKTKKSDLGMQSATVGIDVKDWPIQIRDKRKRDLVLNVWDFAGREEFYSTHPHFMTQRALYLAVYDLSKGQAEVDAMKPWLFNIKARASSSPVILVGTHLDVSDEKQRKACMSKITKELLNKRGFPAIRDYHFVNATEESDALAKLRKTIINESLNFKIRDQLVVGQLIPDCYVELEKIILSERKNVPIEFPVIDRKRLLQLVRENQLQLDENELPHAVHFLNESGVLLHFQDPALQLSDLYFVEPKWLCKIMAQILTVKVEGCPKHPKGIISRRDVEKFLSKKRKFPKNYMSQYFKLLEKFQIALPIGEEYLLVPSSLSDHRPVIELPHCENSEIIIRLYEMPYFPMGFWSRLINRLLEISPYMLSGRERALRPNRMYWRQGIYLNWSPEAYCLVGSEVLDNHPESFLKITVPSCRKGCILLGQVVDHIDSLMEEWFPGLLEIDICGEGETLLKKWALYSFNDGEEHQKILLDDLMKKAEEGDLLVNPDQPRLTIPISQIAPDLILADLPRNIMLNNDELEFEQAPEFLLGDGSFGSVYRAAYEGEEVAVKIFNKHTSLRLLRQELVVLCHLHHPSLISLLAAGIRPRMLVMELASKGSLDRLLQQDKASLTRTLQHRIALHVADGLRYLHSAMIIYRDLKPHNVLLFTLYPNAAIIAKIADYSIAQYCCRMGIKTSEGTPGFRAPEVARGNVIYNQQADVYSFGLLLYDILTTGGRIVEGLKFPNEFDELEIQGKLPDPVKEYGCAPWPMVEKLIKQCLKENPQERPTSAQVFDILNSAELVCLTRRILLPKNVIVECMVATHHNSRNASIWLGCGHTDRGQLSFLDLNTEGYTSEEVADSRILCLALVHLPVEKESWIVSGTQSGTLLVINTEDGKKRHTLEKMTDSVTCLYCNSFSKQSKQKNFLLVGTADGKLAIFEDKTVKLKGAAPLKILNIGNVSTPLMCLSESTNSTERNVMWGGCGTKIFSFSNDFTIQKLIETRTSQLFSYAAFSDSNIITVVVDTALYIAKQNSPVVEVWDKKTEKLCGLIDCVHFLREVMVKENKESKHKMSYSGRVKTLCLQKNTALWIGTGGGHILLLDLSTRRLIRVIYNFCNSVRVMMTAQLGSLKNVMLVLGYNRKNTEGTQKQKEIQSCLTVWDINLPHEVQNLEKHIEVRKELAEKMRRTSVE

| SMILES | LRRK2 pIC50 |
| --- | --- |
| Cc1cc2cnc(Nc3cnn(C4CC4)c3Cl)nc2cc1[C@@H]1CCN([C@@]2(C)COC[C@H]2O)C[C@H]1F (single isomer, unassigned) [Ex-4.148, (3S,4S)(3S,4S) or (3S,4S)(3R,4R) or (3R,4R)(3S,4S) or (3R,4R)(3R,4R) 4-(4-{2-[(5-chloro-1-cyclopropyl-1H-pyrazol-4-yl)amino]-6-methylquinazolin-7-yl}-3-fluoropiperidin-1-yl)-4-methyloxolan-3-ol] | >9.20 |
| Cc1c(Nc2ncc3cc(Cl)c(C4CCN(C[C@H](O)c5c(F)cccc5F)CC4)cc3n2)cnn1C1CC1 [Ex-4.208, (1R)-2-(4-{6-chloro-2-[(1-cyclopropyl-5-methyl-1H-pyrazol-4-yl)amino]quinazolin-7-yl}piperidin-1-yl)-1-(2,6-difluorophenyl)ethan-1-ol] | 7.96 |
| Cc1cc2cnc(Nc3cnn(C)c3Cl)nc2cc1[C@@H]1CCN([C@@H]2COC[C@@H]2O)C[C@H]1F (single isomer, unassigned) [Ex-4.259, (3S,4S)(3S,4S) or (3S,4S)(3R,4R) or (3R,4R)(3S,4S) or (3R,4R)(3R,4R) 4-(4-(2-((5-chloro-1-methyl-1H-pyrazol-4-yl)amino)-6-methylquinazolin-7-yl)-3-fluoropiperidin-1-yl)tetrahydrofuran-3-ol] | >9.20 |
| Cc1cc2cnc(Nc3cnn(C)c3Cl)nc2cc1C1CCN([C@@H]2COC[C@@H]2O)CC1 (single isomer, unassigned) [Ex-2.78, (3S,4S) or (3R,4R) 4-(4-{2-[(5-chloro-1-methyl-1H-pyrazol-4-yl)amino]-6-methylquinazolin-7-yl}piperidin-1-yl)oxolan-3-ol] | >9.20 |
| Cc1c(Nc2ncc3cc(Cl)c(C4CCN(C5COC[C@H]5O)[C@@H](C)C4)cc3n2)cnn1C1CC1 (single isomer, unassigned) [Ex-4.129, (3S,4S)(2S,4R) or (3S,4S)(2S,4S) or (3R,4R)(2S,4R) or (3R,4R)(2S,4S) (3 4-[4-{6-chloro-2-[(1-cyclopropyl-5-methyl-1H-pyrazol-4-yl)amino]quinazolin-7-yl}-2-methylpiperidin-1-yl]oxolan-3-ol] | >9.20 |
| CC1(N2CCC(c3cc4nc(Nc5cnn(C67CC(C6)C7)c5Cl)ncc4cc3Cl)CC2)COC1 [Ex-8.38, N-[1-(bicyclo[1.1.1]pentan-1-yl)-5-chloro-1H-pyrazol-4-yl]-6-chloro-7-[1-(3-methyloxetan-3-yl)piperidin-4-yl]quinazolin-2-amine] | >9.20 |
| COC[C@H](O)CN1CCC(c2cc3nc(Nc4cnn(C5CC5)c4C)ncc3cc2Cl)CC1 [Ex-4.211, (2R)-1-(4-{6-chloro-2-[(1-cyclopropyl-5-methyl-1H-pyrazol-4-yl)amino]quinazolin-7-yl}piperidin-1-yl)-3-methoxypropan-2-ol] | 9.15 |
| CO[C@H]1COC[C@H]1N1CC[C@@H](c2cc3nc(Nc4cnn(C5CC5)c4Cl)ncc3cc2C)[C@H](F)C1 (single isomer, unassigned) [Ex-4.248, (3S,4S)(3S,4S) or (3S,4S)(3R,4R) or (3R,4R)(3S,4S) or (3R,4R)(3R,4R)N-(5-chloro-1-cyclopropyl-1H-pyrazol-4-yl)-7-[3-fluoro-1-(4-methoxyoxolan-3-yl)piperidin-4-yl]-6-methylquinazolin-2-amine] | >9.20 |
| Cc1cc2cnc(Nc3cnn(C4CC4(F)F)c3Cl)nc2cc1[C@H]1CCN(C2COC[C@@H]2O)C[C@@H]1F (single isomer, unassigned) [Ex-4.139, (R)(3S,4S)(3S,4S) or (R)(3S,4S)(3R,4R) or (R)(3R,4R)(3S,4S) or (R)(3R,4R)(3R,4R) or (S)(3S,4S)(3S,4S) or (S)(3S,4S)(3R,4R) or (S)(3R,4R)(3S,4S) or (S)(3R,4R)(3R,4R) 4-[4-(2-{[5-chloro-1-(2,2-difluorocyclopropyl)-1H-pyrazol-4-yl]amino}-6-methylquinazolin-7-yl)-3-fluoropiperidin-1-yl]oxolan-3-ol] | >9.20 |
| CC1(N2CCC(c3cc4nc(Nc5cnn(C67CC(CN8CC(F)(F)C8)(C6)C7)c5)ncc4cc3Cl)CC2)COC1 [Ex-2.60, 6-chloro-N-(1-{3-[(3,3-difluoroazetidin-1-yl)methyl]bicyclo[1.1.1]pentan-1-yl}-1H-pyrazol-4-yl)-7-[1-(3-methyloxetan-3-yl)piperidin-4-yl]quinazolin-2-amine] | >9.20 |
| FC(F)n1ncc(Nc2ncc3cc(Cl)c(C4CCN(C5COC5)CC4)cc3n2)c1Cl [Ex-8.2, 6-chloro-N-[5-chloro-1-(difluoromethyl)-1H-pyrazol-4-yl]-7-[1-(oxetan-3-yl)piperidin-4-yl]quinazolin-2-amine] | 8.83 |
| Cn1ncc(Nc2ncc3cc(Cl)c([C@@H]4CCN([C@@H]5COC[C@@H]5O)C[C@H]4F)cc3n2)c1Cl (single isomer, unassigned) [Ex-4.186, (3S,4S)(3S,4S) or (3S,4S)(3R,4R) or (3R,4R)(3S,4S) or (3R,4R)(3R,4R) 4-(4-{6-chloro-2-[(5-chloro-1-methyl-1H-pyrazol-4-yl)amino]quinazolin-7-yl}-3-fluoropiperidin-1-yl)oxolan-3-ol] | 7.95 |
| Cc1c(Nc2ncc3cc(Cl)c([C@@H]4CCN(C5COC5)C[C@H]4F)cc3n2)cnn1CC(C)(C)O (single isomer, unassigned) [Ex-4.63, (3S,4S) or (3R,4R) 1-[4-({6-chloro-7-[3-fluoro-1-(oxetan-3-yl)piperidin-4-yl]quinazolin-2-yl}amino)-5-methyl-1H-pyrazol-1-yl]-2-methylpropan-2-ol] | 8.83 |
| Cc1cc(Nc2ncc3cc(Cl)c(C4CCN([C@H]5COC[C@H]5O)CC4)cc3n2)sn1 (single isomer, unassigned) [Ex-2.55, (3S,4S) or (3R,4R)4-(4-{6-chloro-2-[(3-methyl-l,2-thiazol-5-yl)amino]quinazolin-7-yl}piperidin-1-yl)oxolan-3-ol] | >9.20 |
| Cc1cc2cnc(Nc3cnn(C4CC4)c3C)nc2cc1C1CCN([C@@]2(C)COC[C@H]2O)CC1 (single isomer, unassigned) [Ex-2.38, (3S,4S) or (3R,4R) 4-(4-{2-[(1-cyclopropyl-5-methyl-1H-pyrazol-4-yl)amino]-6-methylquinazolin-7-yl}piperidin-1-yl)-4-methyloxolan-3-ol] | >9.20 |
| Cc1nn(CC2(C#N)CC2)cc1Nc1ncc2cc(Cl)c(C3CCN(C4COC4)CC3)cc2n1 [Ex-2.17, 1-{[4-({6-chloro-7-[1-(oxetan-3-yl)piperidin-4-yl]quinazolin-2-yl}amino)-3-methyl-1H-pyrazol-1-yl]methyl}cyclopropane-1-carbonitrile] | >9.20 |
| Cn1nc(C(C)(C)C)cc1Nc1ncc2cc(Cl)c(C3CCN([C@]4(C)COC[C@@H]4O)CC3)cc2n1 (single isomer, unassigned) [Ex-2.83, (3S,4S) or (3R,4R) 4-(4-{2-[(3-tert-butyl-1-methyl-1H-pyrazol-5-yl)amino]-6-chloroquinazolin-7-yl}piperidin-1-yl)-4-methyloxolan-3-ol] | 8.71 |

Same assay, conditions: G2019S LRRK2, 134 μM ATP (Km ATP), mean values; read-out: LRRK2 pIC50 (converted)

| SMILES | IC50 [nM] |
| --- | --- |
| CC(C)(O)Cn1ncc(Nc2ncc3cc(Cl)c([C@@H]4CCN(C5(C)COC5)C[C@H]4F)cc3n2)c1Cl (single isomer, unassigned) [Ex-2.2, (3S,4S) or (3R,4R) 1-(5-chloro-4-((6-chloro-7-(3-fluoro-1-(3-methyloxetan-3-yl)piperidin-4-yl)quinazolin-2-yl)amino)-1H-pyrazol-1-yl)-2-methylpropan-2-ol] | < 0.631 |
| CC(n1ncc(Nc2ncc3cc(Cl)c(C4CCN(C5COC5)CC4)cc3n2)c1Cl)C(F)(F)F (single isomer, unassigned) [Ex-8.3, (S) or (R) 6-chloro-N-[5-chloro-1-(1,1,1-trifluoropropan-2-yl)-1H-pyrazol-4-yl]-7-[1-(oxetan-3-yl)piperidin-4-yl]quinazolin-2-amine] | < 0.631 |
| Clc1cc2cnc(Nc3cnn(C4CC4)c3Cl)nc2cc1C1CCN(C2CCOC2)CC1 (single isomer, unassigned) [Ex-4.49, (S) or (R) 6-chloro-N-(5-chloro-1-cyclopropyl-1H-pyrazol-4-yl)-7-[1-(oxolan-3-yl)piperidin-4-yl]quinazolin-2-amine] | < 0.631 |
| Cc1c(Nc2ncc3cc(Cl)c(C4CCN(C5COC5)CC4)cc3n2)cnn1C1CC1(F)F (single isomer, unassigned) [Ex-4.179, (R) or (S) 6-chloro-N-[1-(2,2-difluorocyclopropyl)-5-methyl-1H-pyrazol-4-yl]-7-[1-(oxetan-3-yl)piperidin-4-yl]quinazolin-2-amine] | < 0.631 |
| Cc1cc2cnc(Nc3cnn(C4(C)CC4)c3C)nc2cc1C1CCN(CCC#N)CC1 [Ex-5.1, 3-(4-(6-methyl-2-((5-methyl-1-(1-methylcyclopropyl)-1H-pyrazol4-yl)amino)quinazolin-7-yl)piperidin-1-yl)propanenitrile] | < 0.631 |
| Cc1c(Nc2ncc3cc(Cl)c(C4CCN(CC(O)CN5CCOCC5)CC4)cc3n2)cnn1C1CC1 (single isomer, unassigned) [Ex-4.228, (S) or (R) 1-(4-{6-chloro-2-[(1-cyclopropyl-5-methyl-1H-pyrazol-4-yl)amino]quinazolin-7-yl}piperidin-1-yl)-3-(morpholin-4-yl)propan-2-ol] | 1.55 |
| CO[C@@H]1COC[C@]1(C)N1CCC(c2cc3nc(Nc4cnn(C5CC5)c4C)ncc3cc2Cl)CC1 (single isomer, unassigned) [Ex-7.3, (3S,4S) or (3R,4R) 6-chloro-N-(1-cyclopropyl-5-methyl-1H-pyrazol-4-yl)-7-(1-(4-methoxy-3-methyltetrahydrofuran-3-yl)piperidin-4-yl)quinazolin-2-amine] | 11.7 |
